{"source": "paper PMC6035176", "about": "“Chemo-manipulation of tumor blood vessels by a metal-based anticancer complex enhances antitumor therapy” (Scientific Reports, 2018)", "target": "T1, Poly(ADP-Ribose) Polymerase type 1 (PARP-1) (Homo sapiens, UniProt P09874)", "T1 construct": "gene PARP1", "T1 sequence (P09874 2-1014)": "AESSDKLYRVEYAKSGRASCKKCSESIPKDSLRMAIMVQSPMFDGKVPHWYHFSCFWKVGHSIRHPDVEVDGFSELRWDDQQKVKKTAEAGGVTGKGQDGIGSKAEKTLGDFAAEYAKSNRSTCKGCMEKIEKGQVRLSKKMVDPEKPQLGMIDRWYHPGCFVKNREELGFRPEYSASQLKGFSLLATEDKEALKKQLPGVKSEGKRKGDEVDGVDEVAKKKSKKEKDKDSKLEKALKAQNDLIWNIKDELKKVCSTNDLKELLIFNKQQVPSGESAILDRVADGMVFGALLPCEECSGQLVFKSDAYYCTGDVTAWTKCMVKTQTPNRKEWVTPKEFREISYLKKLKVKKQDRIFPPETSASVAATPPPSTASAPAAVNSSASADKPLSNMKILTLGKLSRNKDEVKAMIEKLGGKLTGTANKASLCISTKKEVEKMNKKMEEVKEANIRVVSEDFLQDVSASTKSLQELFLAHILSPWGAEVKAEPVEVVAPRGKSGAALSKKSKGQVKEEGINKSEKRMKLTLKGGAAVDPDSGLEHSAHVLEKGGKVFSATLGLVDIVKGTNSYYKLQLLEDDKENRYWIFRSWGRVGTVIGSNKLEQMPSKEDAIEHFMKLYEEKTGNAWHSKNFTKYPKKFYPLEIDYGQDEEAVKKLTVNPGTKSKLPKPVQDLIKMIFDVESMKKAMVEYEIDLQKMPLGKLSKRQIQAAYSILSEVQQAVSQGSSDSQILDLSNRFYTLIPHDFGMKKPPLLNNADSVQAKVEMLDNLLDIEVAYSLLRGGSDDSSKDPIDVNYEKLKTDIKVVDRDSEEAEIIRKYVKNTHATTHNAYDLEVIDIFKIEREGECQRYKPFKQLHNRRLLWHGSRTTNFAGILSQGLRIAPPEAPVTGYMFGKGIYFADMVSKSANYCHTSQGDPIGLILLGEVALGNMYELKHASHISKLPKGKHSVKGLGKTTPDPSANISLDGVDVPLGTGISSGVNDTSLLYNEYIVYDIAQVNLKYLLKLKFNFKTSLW", "assay": "in vitro colorimetric PARP-1 activity assay", "format": "biochemical", "data": [{"substance": "RAPTA-T", "values": [{"measurement": "IC50", "result": 400, "unit": "µM"}]}]}
